In brackets after ≈: the same amount, converted by molar mass. Where two headings read alike, the source gives them in different places. Square brackets hold non-standard residues; d marks the D form. Ends that are not written are not given here. Peptide text beside a SMILES is read from it. ξ: configuration not given here. ξαMeGly(pent-4-enyl) = C=CCCCC(C)(N)C(=O)O
How the values were obtained:
E. coli ATCC 25922 = type: cell-based
Protocol: (§1) The minimum inhibitory concentration (MIC) of the Feleucin-K3 analogs was tested by the broth microdilution method. Sensitive bacteria and drug-resistant bacteria were diluted to 1 × 10^6 CFU/mL, according to the McFarland standards. Bacterial suspension and peptide solutions (8–128 μg/mL) were incubated at 37 °C for 18 h. The minimum concentration without obvious bacterial growth was the MIC of the peptides. The stability of the analogs in a physiological salt environment was also investigated. In brief, salt powder (450-mM NaCl) was dissolved in deionized water, and the following investigational steps were the same as those described before. The above steps were repeated several times, until the same value was obtained three times.

S. aureus ATCC 25923 = type: cell-based, Staphylococcus aureus
Protocol: as §1

P. aeruginosa ATCC 27853 = type: cell-based, Pseudomonas aeruginosa
Protocol: as §1

A. baumannii ATCC 19606 = type: cell-based, Acinetobacter baumannii
Protocol: as §1

[1] = broth microdilution, 1 × 10^6 CFU/mL, 37 °C, 18 h

Row | Compound | MIC, E. coli ATCC 25922 (E. coli ATCC 25922; [1]) | MIC, S. aureus ATCC 25923 (S. aureus ATCC 25923; [1]) | MIC, P. aeruginosa ATCC 27853 (P. aeruginosa ATCC 27853; [1]) | MIC, A. baumannii ATCC 19606 (A. baumannii ATCC 19606; [1]) | MIC, E. coli ATCC 25922 (E. coli ATCC 25922; ATCC 25922, 18 h) | MIC, S. aureus ATCC 25923 (S. aureus ATCC 25923; ATCC 25923, 18 h) | MIC, P. aeruginosa ATCC 27853 (P. aeruginosa ATCC 27853; ATCC 27853, 18 h) | MIC, A. baumannii ATCC 19606 (A. baumannii ATCC 19606; ATCC 19606, 18 h)
1 | GIGKFLHSAKKFGKAFVGEIMNS [Magainin 2, reference compound] | 64 µg/mL | > 256 µg/mL | 256 µg/mL | 16 µg/mL |  |  |  | 
2 | C=CCCCC(C)(NC(=O)[C@H](CCCCN)NC(=O)[C@@H](N)CC(C)C)C(=O)N[C@@H](CC(C)C)C(=O)N[C@@H](CCCCN)C(=O)N[C@@H](CCCCN)C(=O)N[C@@H](CC(C)C)C(=O)N[C@@H](CC(C)C)C(N)=O (stereo partly drawn) [Feleucin-K64] (H-LK[ξαMeGly(pent-4-enyl)]LKKLL-NH2) |  |  |  |  | 16 µg/mL (≈ 16.1 µM) | 16 µg/mL (≈ 16.1 µM) | 4 µg/mL (≈ 4.03 µM) | 64 µg/mL (≈ 64.4 µM)
3 | LKLLKKLL-NH2 [Feleucin-K63] |  |  |  |  | >128 µg/mL | >128 µg/mL | 64 µg/mL | >128 µg/mL

Source: article PMC8160793, “Potent Antimicrobial and Antibiofilm Activities of Feleucin-K3 Analogs Modified by α-(4-Pentenyl)-Ala against Multidrug-Resistant Bacteria” (Biomolecules, 2021)
